Data set [1] is described as follows: MMV: MTT Cytotoxicity Assay Day 3 pi, U87-CD4-CCR5 cells, % cell death @ 5mM compound. In kind it is toxicity, cell-based. Particulars: human, u87-cd4-ccr5, 5000 µM.
The nature of data set [2]: MMV: MTT Cytotoxicity Assay Day 3 pi, U87-CD4-CXCR4 cells, % cell death @ 5mM compound. The format is toxicity, cell-based. Particulars: human, u87-cd4-cxcr4, 5000 µM.
Data set [3] deals with Human immunodeficiency virus 1. In words: MMV: HIV JRFL CCR5-tropic replication-competent virus, virus & compound washed out Day 1 pi, P24 ELISA Day 7 pi, U87-CD4-CCR5, % inhibition at 5 mM compound. The format is functional. Details: dose or concentration left out as unconfirmed. The following applies: Human immunodeficiency virus 1, JR-FL.
A short description of data set [4]: MMV: MTT Cytotoxicity Assay Day 7 pi of Assay #6 (compound washed out Day 1 pi), U87-CD4-CCR5 cells, % cell death @ 5mM compound. The format is toxicity, cell-based. Particulars: human, u87-cd4-ccr5, 5000 µM.
Data set [5] in a line: MMV: MTT Cytotoxicity Assay Day 7 pi of Assay #7 (compound washed out Day 1 pi), U87-CD4-CXCR4 cells, % cell death @ 5mM compound. The format is toxicity, cell-based. The following applies: human, u87-cd4-cxcr4, 5000 µM.
Data set [6] can be described thus: MMV: MTT Cytotoxicity Assay Day 7 pi of Assay #10 (NO washout), U87-CD4-CCR5 cells, % cell death @ 5mM compound. The following applies: human, u87-cd4-ccr5, 5000 µM. The format is toxicity, cell-based.
Data set [7] can be described thus: MMV: MTT Cytotoxicity Assay Day 7 pi of Assay #11 (NO washout), U87-CD4-CXCR4 cells, % cell death @ 5mM compound. Particulars: human, u87-cd4-cxcr4, 5000 µM. The format is toxicity, cell-based.

The text below walks through data of ChEMBL document CHEMBL3301472, “MMV Malaria Box HIV and cytotoxicity screening”.

As a reminder, the inhibition is the relative decrease from the control value, in per cent.

Take `CN1CCN(c2ncnc3c2[nH]c2ccc(Cl)cc23)CC1`: the “% Cell Death” value was -11 in data set [1]; 27 in data set [2]; 29 in data set [4]; -25 in data set [5]; 31 in data set [6]; 1 in data set [7]. Further, the inhibition in data set [3] is 10%.
On to `O=C(Nc1cccc(C2=NCCN2)c1)Nc1cccc(C2=NCCN2)c1` [IMIDOCARB], for which the “% Cell Death” value in data set [1] was 31; in data set [2], 63; in data set [4] it was -6; in data set [5] it was 15; in data set [6], 63; in data set [7], 65. The inhibition in data set [3] came out at 7%.
Turning to `Cc1cccc(Nc2nc(N)c3ccccc3n2)c1.Cl`, the “% Cell Death” value in data set [1] is 7; in data set [2], 43; in data set [4], 28; in data set [5], -15; in data set [6] it was 43; in data set [7], 71. Besides, in data set [3], the inhibition was 5%.
Turning to `CN(C)c1ccc(N2C(N)=NC(N)=NC2(C)C)cc1`, the “% Cell Death” value is given as -12 in data set [1]; 21 in data set [2]; 14 in data set [4]; 12 in data set [5]; 4 in data set [6]; 21 in data set [7]. The inhibition in data set [3] was found to be 1%.
As for `CCCCOC(=O)c1ccc(Nc2cc(C)nc3ccc(OC)cc23)cc1`, the “% Cell Death” value in data set [1] is recorded as 32; in data set [2], 30; in data set [4] it was 16; in data set [5], -10; in data set [6], 21; in data set [7], -45. In addition, in data set [3], the inhibition came to 0%.
In the case of `Cc1cc(C)c2nc(N3CCC(C(=O)NCCCN4CCC(N5CCCCC5)CC4)CC3)sc2c1`, the “% Cell Death” value in data set [1] is -8; in data set [2], 8; in data set [4] it was 5; in data set [5], -20; in data set [6], -39; in data set [7], -37. Also, in data set [3], the inhibition was found to be 1%.
For `Cc1ccc(-c2nc3ccccc3o2)cc1NCc1cc(Cc2ccccc2)ccc1O`, the “% Cell Death” value in data set [1] was 27; in data set [2], 15; in data set [4], -7; in data set [5] it was -11; in data set [6], 13; in data set [7], 52. In addition, the inhibition in data set [3] was determined as 8%.
As for `Cc1ccc(CSCc2ccc(C(=O)NC3CC3)o2)cc1`, the “% Cell Death” value is 23 in data set [1]; 12 in data set [2]; 18 in data set [4]; -23 in data set [5]; -6 in data set [6]; -2 in data set [7]. The inhibition in data set [3] is 2%.
Consider `Cc1sc2ncnc(Sc3nc4ccccc4[nH]3)c2c1C`, for which the “% Cell Death” value was 16 in data set [1]; 18 in data set [2]; -6 in data set [4]; -5 in data set [5]; 27 in data set [6]; -15 in data set [7]. Besides, the inhibition in data set [3] is -1%.
As for `CC(C)CNC(=O)c1c(N)n(CCc2ccccc2F)c2nc3ccccc3nc12`, the “% Cell Death” value was 0 in data set [1]; 47 in data set [2]; 4 in data set [4]; -6 in data set [5]; 35 in data set [6]; 99 in data set [7]. Further, the inhibition in data set [3] came to 3%.
Turning to `Cc1cc(NC(=O)c2ccc(-c3ccccc3)cc2)no1`, the “% Cell Death” value in data set [1] was -16; in data set [2], 43; in data set [4] it was -24; in data set [5], -27; in data set [6], 32; in data set [7], -1. Moreover, the inhibition in data set [3] stood at 4%.
In the case of `COc1ccc(-c2nc(N3CCN(C(=O)C4CCCCC4)CC3)c3c4c(sc3n2)CCCC4)cc1`, the “% Cell Death” value in data set [1] was 2; in data set [2] it was 46; in data set [4] it was -3; in data set [5], -26; in data set [6], 113; in data set [7], 104. The inhibition in data set [3] stood at 5%.
Consider `C=CC12CCN(CC1)C(C(O)c1ccnc3ccc(OC)cc13)C2.Cl` (configuration not stated), for which the “% Cell Death” value in data set [1] is on record as -14; in data set [2] it was 27; in data set [4], -12; in data set [5] it was -23; in data set [6], 27; in data set [7], -24. For the same molecule, the inhibition in data set [3] was -2%.
As to `Cc1cc(Nc2cccc(F)c2)nc(NCc2ccccc2)n1`, the “% Cell Death” value is on record as 21 in data set [1]; 33 in data set [2]; 6 in data set [4]; -12 in data set [5]; 20 in data set [6]; -41 in data set [7]. The inhibition in data set [3] was 5%.
For `CC(=O)c1ccc(NC(=O)CSc2nc(-c3ccccc3Cl)ns2)cc1`, the “% Cell Death” value in data set [1] was 57; in data set [2] it was 51; in data set [4], 7; in data set [5] it was 8; in data set [6], 41; in data set [7], -33. The inhibition in data set [3] came to 7%.
For the molecule `CN1CCN(c2ccc(Nc3c4ccccc4nc4ccccc34)cc2)CC1`, the “% Cell Death” value in data set [1] is 11; in data set [2] it was 22; in data set [4] it was 22; in data set [5], -14; in data set [6], 19; in data set [7] it was -32. The inhibition in data set [3] came out at 6%.
For the molecule `CCn1c(SCC(=O)Nc2cc(C(F)(F)F)ccc2Cl)nc2ccccc2c1=O`, the “% Cell Death” value was -1 in data set [1]; 81 in data set [2]; 23 in data set [4]; -27 in data set [5]; 19 in data set [6]; 17 in data set [7]. Moreover, the inhibition in data set [3] amounted to 8%.
Take `COCCNC(=O)c1ccc(OC2CCN(Cc3ccc(F)c(F)c3)CC2)c(Cl)c1`: the “% Cell Death” value is reported as 31 in data set [1]; 4 in data set [2]; 20 in data set [4]; -5 in data set [5]; 15 in data set [6]; -22 in data set [7]. Further, the inhibition in data set [3] was 9%.
Turning to `O=c1nc(C=Cc2ccc(Cl)cc2)oc2ccccc12`, the “% Cell Death” value is given as 50 in data set [1]; 20 in data set [2]; 7 in data set [4]; -17 in data set [5]; 26 in data set [6]; -47 in data set [7]. In addition, the inhibition in data set [3] was found to be 1%.
In the case of `CCCCCCc1cc2cc(-c3nc4ccccc4[nH]3)c(=Nc3ccccc3C)oc2cc1O`, the “% Cell Death” value in data set [1] is 31; in data set [2] it was 25; in data set [4] it was 15; in data set [5] it was -2; in data set [6], 44; in data set [7], 53. Moreover, the inhibition in data set [3] was found to be 4%.
Consider `Cl.Clc1cc(Br)ccc1-c1ccc(CNCC2CCNCC2)o1`, for which the “% Cell Death” value in data set [1] is 15; in data set [2], 27; in data set [4], -9; in data set [5], 4; in data set [6] it was 0; in data set [7], -60. Further, the inhibition in data set [3] came out at 4%.
Turning to `O=C(NCc1ccco1)C1CCN(S(=O)(=O)c2ccc(Cl)cc2)CC1`, the “% Cell Death” value in data set [1] is given as 22; in data set [2], 12; in data set [4] it was 37; in data set [5] it was -15; in data set [6], 18; in data set [7], 23. Also, the inhibition in data set [3] stood at 1%.
Consider `COc1ccc(Nc2nc(NCc3ccccc3)c3ccccc3n2)cc1`, for which the “% Cell Death” value is 18 in data set [1]; 28 in data set [2]; 21 in data set [4]; -30 in data set [5]; 41 in data set [6]; -24 in data set [7]. In data set [3], the inhibition was determined as 2%.
`CCC(=O)Nc1nnc(Cc2ccc(OC)c(OC)c2)s1`: the “% Cell Death” value in data set [1] is 17; in data set [2], 21; in data set [4], -1; in data set [5], -14; in data set [6] it was 9; in data set [7], -23. In addition, the inhibition in data set [3] is -1%.
With `COc1cc2cc(C(=O)Nc3ccccc3)c(N)nc2cc1OC`, the “% Cell Death” value in data set [1] was 75; in data set [2], 43; in data set [4] it was 0; in data set [5], 51; in data set [6] it was 95; in data set [7], 106. In addition, the inhibition in data set [3] came to 9%.
Consider `CCOc1cccc2sc(N(Cc3cccnc3)C(=O)C3CCCCC3)nc12`, for which the “% Cell Death” value in data set [1] is recorded as 2; in data set [2], 9; in data set [4], 34; in data set [5], 8; in data set [6], 65; in data set [7] it was 52. Besides, the inhibition in data set [3] is 4%.
